From US20120165576A1, “USE OF ERYTHRITOL FOR THE PREVENTION OR TREATMENT OF HYPERTENSION” (priority 2009, published 2012)
Entries after “also recorded” stand apart in the source; their conditions may differ. Read-outs that look alike come from different tables or passages of the source. Marks after values point to notes of the source that are not given here.

Assays:
[1] = tested on: manganese superoxide dismutase (SOD2); experiment: SOD2 expression in endothelial cells by qPCR; assay type: cell-based; settings: human umbilical vein endothelial cells (CRL-1730), erythritol 5 mM, 24 hours
Description: The exposure of endothelial cells to erythritol results in a increase in manganese superoxide dismutase (SOD2) transcription (FIG. 4). Cultured human umbilical vein endothelial cells (CRL-1730, which are available from ATCC) were incubated under standard conditions with erythritol (5 mM, 24 hours). Exposure to erythritol induced or stimulated a 9.4 fold increase in the expression of SOD2 as determined by qPCR (FIG. 4).
After incubation, RNA was isolated from Qiazol suspended cells according to the manufacturer's protocol and quantified using a nanodrop. Reverse transcription reaction was performed using 500 ng of total RNA, which was reverse-transcribed into cDNA using iScript™ cDNA synthesis kit. Next, real time PCR was performed with a BioRad MyiQ iCycler Single Color RT-PCR detection system using Sensimix™ Plus SYBR and Fluorescein, 5 μl diluted (10×) cDNA, and 0.3 μM primers in a total volume of 25 μl. PCR was conducted as follows: denaturation at 95° C. for 3 minutes, followed by 40 cycles of 95° C. for 15 seconds and 60° C. for 45 seconds. After PCR a melt curve (60-95° C.) was produced for product identification and purity. β-actin was included as internal control. Data were analysed using the MyIQ software system (Biorad) and were expressed as relative gene expression (fold change) using the 2^ΔΔCt method.

[2] = tested on: red blood cell suspension; experiment: AAPH-induced hemolysis of a red blood cell suspension; assay type: cell-based; settings: erythritol 0-50 mM, AAPH 50 mM, 37° C., FIG. 3
[3] = tested on: sections of thoracic aorta (aortic rings); experiment: Aorta reactivity measurements: isolated aortic rings of rats after 21 days of erythritol in drinking water; assay type: in vivo, Wistar rats; settings: for CAR: relaxation induced by 100 μM carbachol / PE: Contraction induced by 10 μM phenylephrine / SNP: Relaxation induced by 100 μM SNP after stable response to 100 μM carbachol / Tot. relax: Relaxation induced by 100 μM carbachol followed by 100 μM SNP / SNP fraction: Contribution of 100 μM SNP to the total relaxation: 1 g erythritol/kg/day in drinking water, 21 days, mean ± SEM
[4] = cited from earlier work
[5] = cited from earlier work; remark: listed apart in the source
[6] = group DE: STZ diabetic rats, N = 4
[7] = group NE: normoglycemic rats, N = 5
[8] = clinical testing, oral consumption

SMILES: OCC(O)C(O)CO (stereo not shown) [erythritol, 1,2,3,4-butanetetrol]
- Increase in the expression of SOD2 as determined by qPCR [1]: 9.4 fold
- Inhibition of AAPH-induced hemolysis (in words) [2]: inhibited hemolysis in a concentration-dependent manner
- Lagtime (t50, time to reach 50% hemolysis) of AAPH-induced hemolysis (in words) [2]: concentration-dependently shifted the curve to the right; also recorded: concentration-dependent increase
- Relaxation response of aortic rings to carbachol (in words) ([3]; diabetic rats consuming erythritol (DE), 1 g/kg/day, compared with normoglycemic rats): essentially the same as the relaxation response of normoglycemic rats; also recorded: identical to that observed in the normoglycemic rats; also recorded: higher and at the same level as found in the aortic rings of the rats of groups N and NE
- CAR: relaxation induced by 100 μM carbachol [3, 6]: 0.61 ± 0.07 g
- PE: Contraction induced by 10 μM phenylephrine [3, 6]: 0.60 ± 0.07 g
- SNP: Relaxation induced by 100 μM SNP after stable response to 100 μM carbachol [3, 6]: 0.14 ± 0.03 g
- Tot. relax: Relaxation induced by 100 μM carbachol followed by 100 μM SNP [3, 6]: 0.75 ± 0.09 g
- SNP fraction: Contribution of 100 μM SNP to the total relaxation ([3]; group DE: STZ diabetic rats, N = 4, p < 0.05 compared to D): 17.8 ± 3.1^b %
- CAR: relaxation induced by 100 μM carbachol [3, 7]: 0.60 ± 0.07 g
- PE: Contraction induced by 10 μM phenylephrine [3, 7]: 0.70 ± 0.06 g
- SNP fraction: Contribution of 100 μM SNP to the total relaxation [3, 7]: 24.7 ± 5.5^ %
- SNP: Relaxation induced by 100 μM SNP after stable response to 100 μM carbachol [3, 7]: 0.21 ± 0.06 g
- Tot. relax: Relaxation induced by 100 μM carbachol followed by 100 μM SNP [3, 7]: 0.81 ± 0.09 g
- Effect on carbachol concentration-response curve (in words) ([3]; normoglycemic rats consuming erythritol (NE), 1 g/kg/day, FIG. 1): did not have a significant effect
- Well tolerated bolus (single) dose [4, 8]: up to 50 grams
- Well tolerated daily dose [4, 8]: up to 80 grams
- Well tolerated bolus (single) dose ([4]; clinical testing, oral consumption, listed as Erythritol): ≤ 50 grams
- Digestive side-effects (in words) ([4]; even after consumption of large quantities): no digestive side-effects
- Time until excretion with the urine is complete ([5]; after administration): about 3 days
- Systemic metabolism (in words) ([5]; in vivo): not systemically metabolized
- Absorption from the gut (in words) ([5]; oral): rapidly and virtually completely absorbed
